Experimental data taken from patent US20120196899A1, “METHODS AND PRODUCTS FOR TREATING INFLAMMATION” (Rock Creek Pharmaceuticals, Inc., priority 2010, published 2012).

What was measured:
[1] = molecular target: T1, nAChR α4/β2 (Homo sapiens, UniProt P17787+P43681); assay: nAChR α4/β2 positive allosteric modulator assay (FLIPR); type: cell-based; conditions: with 10 μM Ach (= 0%), 10 μM Ach + epibatidine = 100%
T1 construct: host or cells: HEK293 cells, transient transfection
Procedure: The following three (3) channels were evaluated: • 1. nAChR α3/β4 (encoded by the human CHRNA3 and CHRNB4 gene and stably expressed in CHO cells); • 2. nAChR α4/β2 (CHRNA4 and CHRNB2 gene and transiently expressed in HEK293 cells); and • 3. nAChR α7 (encoded by the human nicotinic α7 gene coexpressed in CHO cells with the chaperone RIC-3 encoded by the human RIC3 gene).
The ability of each test article to act as an agonist, a positive allosteric modulator or antagonist of three nAChR receptor channels was evaluated in the presence of 0.1 atropine. Both test articles were evaluated for responses on each nAChR channel at eight (8) concentrations: 0.3, 1, 3, 10, 30, 100, 300, and 1000 μM (n=4 for each concentration).
HEK293 or CHO cells were transiently or stably transfected with the appropriate human ion channel cDNAs. Stable transfectants were selected by coexpression with the antibiotic-resistance gene(s) incorporated into the expression plasmid(s). Selection pressure was maintained by including selection antibiotics in the culture medium. HEK293 cells were cultured in Dulbecco's Modified Eagle Medium/Nutrient Mixture F-12 (D-MEM/F-12) supplemented with 10% fetal bovine serum, 100 U/mL penicillin G sodium, 100 g/mL streptomycin sulfate and appropriate selection antibiotics. CHO cells were cultured in Ham's F-12 supplemented with 10% fetal bovine serum, 100 U/mL penicillin G sodium, 100 g/mL streptomycin sulfate and appropriate selection antibiotics.
For FLIPR TETRA™ assay, cells were plated in 384-well black wall, flat clear bottom microtiter plates (Type: BD Biocoat Poly-D-Lysine Multiwell Cell Culture Plate) at 20,000 to 30,000 cells per well (384-well plate). Cells were incubated at 37° C. overnight or until the cells reached a sufficient density in the wells (near confluent monolayer) to use in fluorescence assays. For α4β2 assay, cells were incubated at 27° C. for at least 7 hours before use.
Experiments were performed with either the FLIPR calcium sensitive dye kit (Fluo-8, ABDbioquest, for nAChR α3/β4 and nAChR α7) or FLIPR membrane potential kit (Molecular Devices, for nAChR α4/β2) according to the manufacturer's instructions. Briefly, cells were incubated with 201 dye for 30 min at 37° C. After dye loading period, for the agonist assay, 5 μl of the test, vehicle, or control articles at concentration of 5 times of final concentration were applied to the cells without stimulation. For the positive allosteric modulation (PAM) and antagonist assay, after test article application, the cells were stimulated with either low dose (for PAM) or high dose (for antagonist) of Ach.
The signal elicited in the presence of the positive control agonist and allosteric modulator epibatidine (10 μM Ach+3 μM epibatidine) was set to 100% and the signal from the agonist control (10 μM Ach) was set to 0%.

[2] = tested on: phosphorylated p65; assay: p65 phosphorylation in brain after intracranial TNFα; type: in vivo, Wild-type mice (B6/SJL); conditions: 2 mg/kg i.p., mouse brain, normalized to actin
Procedure: After 5 minutes, mice were intracranially injected with 0.5 mg of TNFα. Mice were euthanized ten minutes after the intracranial injection. The portion of the brain surrounding the intracranial site of injection was collected, and proteins were extracted. Phosphorylation of p65 was measured with an antibody towards phosphorylated p65.

[3] = tested on: Experimental Autoimmune Thyroiditis; assay: Experimental Autoimmune Thyroiditis (Example 16A): thyroid histopathology; type: in vivo, mice; conditions: 0.05 mg/ml in drinking water, day 21, p=0.05
Procedure: Thyroiditis was induced by injection of thyroglobulin emulsified in complete Freund's adjuvant (CFA). On days 0 and 7, female mice received subcutaneous injection of 100 μg thyroglobulin (2 injections of 50 μg each). Control mice drank water. […] Mice were sacrificed on day 21.
Thyroid histopathology. Thyroid glands were removed. One lobe was fixed in formalin for histopathology. One lobe was frozen for immunohistochemistry. The extent of lymphocytic infiltration and destruction of the thyroid gland was assessed digitally. Initially, the entire thyroid lobe was examined. […] The final score was expressed as the percent of the thyroid area infiltrated by lymphocytes and damaged. The results are shown graphically in FIG. 42. […] Photomicrographs of hematoxylin- and eosin-stained thyroids from control and anatabine-treated mice are shown in FIG. 43A (control) and FIG. 43B (anatabine-treated).

[4] = nicotine 1.25 mg/kg (1 female) and 1.0 mg/kg (3 females) single i.v.
Procedure: One control group of animals received a single i.v. dose of the vehicle at 5 mL/kg. Ten rats (5 males and 5 females) were dosed per group. […] One female received a single i.v. dose of 1.25 mg/kg, and 3 females received a single i.v. dose of 1.0 mg/kg.
Following the tolerability study, an additional group was added to the study. […] All animals were observed daily. Body weight and food consumption was measured daily, with any abnormal observations noted. Average daily body weights and food consumption was tabulated with standard deviation calculated.

T1 sequence (P17787 26-502): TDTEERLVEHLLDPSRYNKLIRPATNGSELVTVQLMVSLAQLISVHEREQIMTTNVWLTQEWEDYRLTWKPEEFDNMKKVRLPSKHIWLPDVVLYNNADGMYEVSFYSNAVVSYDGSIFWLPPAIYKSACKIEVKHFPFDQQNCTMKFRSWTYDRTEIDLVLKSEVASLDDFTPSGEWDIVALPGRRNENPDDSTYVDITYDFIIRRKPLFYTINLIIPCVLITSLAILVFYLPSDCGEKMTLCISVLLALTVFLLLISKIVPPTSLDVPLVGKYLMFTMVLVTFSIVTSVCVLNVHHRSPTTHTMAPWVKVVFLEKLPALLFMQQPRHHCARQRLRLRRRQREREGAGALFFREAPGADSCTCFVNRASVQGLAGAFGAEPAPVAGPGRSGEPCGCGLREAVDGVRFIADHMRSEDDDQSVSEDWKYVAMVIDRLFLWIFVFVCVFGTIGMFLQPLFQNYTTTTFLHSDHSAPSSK
T1 sequence (P43681 29-627): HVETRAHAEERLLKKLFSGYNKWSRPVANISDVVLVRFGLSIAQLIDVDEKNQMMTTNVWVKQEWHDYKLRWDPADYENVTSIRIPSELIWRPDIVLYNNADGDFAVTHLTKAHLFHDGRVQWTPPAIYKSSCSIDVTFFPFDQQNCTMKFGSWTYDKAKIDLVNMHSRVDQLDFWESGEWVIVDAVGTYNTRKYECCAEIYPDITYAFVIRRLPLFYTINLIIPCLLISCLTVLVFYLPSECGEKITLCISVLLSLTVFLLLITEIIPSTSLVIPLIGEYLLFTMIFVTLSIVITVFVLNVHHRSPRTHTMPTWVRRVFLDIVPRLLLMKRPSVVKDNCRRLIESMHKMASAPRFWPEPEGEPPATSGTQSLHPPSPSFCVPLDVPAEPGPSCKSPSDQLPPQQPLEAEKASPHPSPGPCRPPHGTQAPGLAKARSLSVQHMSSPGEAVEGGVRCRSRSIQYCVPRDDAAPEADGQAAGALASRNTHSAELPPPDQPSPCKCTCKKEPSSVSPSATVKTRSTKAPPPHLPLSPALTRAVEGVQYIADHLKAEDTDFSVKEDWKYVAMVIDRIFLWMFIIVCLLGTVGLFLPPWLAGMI

With `C1=CCC(c2cccnc2)NC1` (racemic) [Anatabine (racemate)] the “Normalized % Potentiation” value ([1]; test conc 0.3 μM) was −18.94%, the “Normalized % Potentiation” value ([1]; test conc 1 μM) was −27.03% and the “Normalized % Potentiation” value ([1]; test conc 3 μM) was −35.59%. For the same compound, the “Normalized % Potentiation” value ([1]; test conc 10 μM) was −42.34%, the “Normalized % Potentiation” value ([1]; test conc 30 μM) was −39.48% and the “Normalized % Potentiation” value ([1]; test conc 100 μM) was −38.34%. For the same compound, the “Normalized % Potentiation” value ([1]; test conc 300 μM) was −41.07% and the “Normalized % Potentiation” value ([1]; test conc 1000 μM) was −35.30%.

In the case of `C1=CCC(c2cccnc2)NC1` (racemic) [Anatabine, 1,2,3,6-tetrahydro-[2,3′]bipyridinyl], the p65 phosphorylation [2] is reported as “reduced p65 phosphorylation in mouse brain” and the “thyroid pathology (percent of thyroid area infiltrated and damaged)” value [3] is reported as “developed less severe thyroiditis than control mice”.

With `CN1CCCC1c1cccnc1.O=C(O)C(O)C(O)C(=O)O` (single isomer, unassigned; (-)) [Nicotine, (−) Nicotine hydrogen tartrate, reference compound] the “clinical signs in tolerability study” value [4] was “experienced severe tremors upon completion of dosing, but all returned to normal by 20 minutes post dose”.
